We go through 61 compounds from PubChem BioAssay AID1159563 (GlaxoSmithKline (GSK), 2015).

SMILES strings stand for the structures. Calls of active or inactive are those of the source. No rule for the calls is given here.

In general, IC50 refers to the concentration that gives 50% inhibition.

The subject of the assay is HepG2 cytotoxicity. Briefly: HepG2 cell cytotoxicity, cytotoxicity control (AID 1159563).

For the compound `O=C(COc1nn(-c2ccccc2)c2ncccc12)NCc1ccccc1`, the IC50 was > 100 µM (inactive). As to `Cc1nc(-c2nc(NCc3ccc(Cl)cc3)c3cccnc3c2O)n[nH]1`, the IC50 is 16 µM.

For `Cc1ccccc1CNc1cc(C2CC2)nc(-c2nccn2C)n1`, the IC50 is 16 µM. As for `O=[N+]([O-])c1cccc(Nc2cncc(-c3ccccc3CO)c2)c1`, the IC50 was > 100 µM (inactive). As for `O=C(N1CCc2ccccc2CC1)C1(C(=O)N2CCC(n3c(=O)[nH]c4ncccc43)CC2)CC1`, the IC50 was > 100 µM (inactive). The value for `COc1ccccc1C1CC(c2ccc(NS(C)(=O)=O)cc2)=NN1C(=O)c1cccs1` (stereo unspecified) was > 100 µM (inactive); that for `CCN(Cc1nc2ccc(C(=O)N3CCN(c4ncccn4)CC3)cc2[nH]1)C1CCCc2cccnc21` (stereo unspecified) was > 100 µM (inactive). The value for `Cc1nc(-c2ccncc2)ncc1C(C)NC(=O)c1ccc(Cl)s1` (stereo unspecified) was > 100 µM (inactive). Consider `O=[N+]([O-])c1ccc(-c2nnn(-c3ccc(Cl)cc3)n2)o1`, for which the IC50 was > 100 µM (inactive).

Regarding `COc1cnc2ccc(=O)n(CCN3CCC(NC(=O)c4ccc(Cl)cc4)CC3)c2c1`, the IC50 was > 100 µM (inactive). The value for `O=C(NCc1ccc(Cl)cc1)C1CN(C(=O)c2ccc(F)cc2)CCS1` (stereo unspecified) was > 100 µM (inactive); that for `Cc1cc(C#N)c([N+](=O)[O-])cc1Br` was 32 µM; that for `CS(=O)(=O)c1ccccc1C(=O)N(Cc1ccccc1)c1ccccc1` was > 100 µM (inactive). `Cc1ccc2sc(NC(=O)Cn3cnc([N+](=O)[O-])n3)nc2c1`: the IC50 is > 100 µM (inactive). The value for `COc1ccnc2[nH]cc(-c3cc(C(=O)N[C@H](CO)c4ccccc4)co3)c12` was 16 µM.

With `COc1ccc(OC)c2c(=O)c(Cc3ccccc3)c(C)[nH]c12`, the IC50 was > 100 µM (inactive). The value for `COc1cc(-c2noc(CC#N)n2)ccc1OC(F)F` was > 100 µM (inactive); that for `Cc1ccc(CNC2CCN(C[C@@H]3Cn4c(=O)ccc5ccc(=O)n3c54)CC2)cc1F` was > 100 µM (inactive); that for `COc1ccc2ncc(=O)n(CCN3CC[C@H](NCc4ncc(Cl)c5[nH]ncc45)[C@H](O)C3)c2n1` was > 100 µM (inactive). The value for `O=C(N[C@H](CO)c1ccccc1)c1ccc(-c2c[nH]c3nccc(C(F)(F)F)c23)s1` was 63 µM; that for `CCNc1cc(-c2ccccn2)nc(Nc2ccccc2)n1` was 25 µM. As to `COc1ccc(S(=O)(=O)Nc2ccc(CN3CCN(C(=O)c4cccc(C#N)c4)CC3)cc2)cc1`, the IC50 is > 100 µM (inactive). With `COc1ccccc1C=CCN1C[C@H]2CCC[C@@H](C1)C2(O)c1cccnc1` (stereo partly specified), the IC50 was > 100 µM (inactive).

On to `CN(C)Cc1ccc(N2CCC(NS(=O)(=O)c3ccc(Cl)cc3)CC2)cc1`, for which the IC50 is 50 µM. In the case of `O=C(c1cnn(-c2ccccc2)n1)N1CCCC(n2ccnc2)C1` (stereo unspecified), the IC50 was > 100 µM (inactive). Consider `CS(=O)(=O)NC1CCC(Nc2ncc(Br)c(Nc3ccccc3C(N)=O)n2)CC1` (stereo unspecified), for which the IC50 is > 100 µM (inactive). Take `COc1ccc(NS(=O)(=O)c2cc(-c3cc(C)[nH]n3)ccc2C)cc1OC`: the IC50 is > 100 µM (inactive). Take `Cc1ccccc1NS(=O)(=O)c1ccc2[nH]cc(C(=O)NC3CCCCC3)c(=O)c2c1`: the IC50 is 32 µM. The value for `Cc1occc1C(=O)Nc1ccccc1C(=O)Nc1nccs1` was > 100 µM (inactive); that for `C[C@@H](Oc1cc(-n2cnc3cc(N)ccc32)sc1C(N)=O)c1ccccc1Cl` was 20 µM.

Consider `Cc1cccc(NS(=O)(=O)c2ccc3c(c2)C(=O)c2cc(S(=O)(=O)Nc4cccc(C)c4C)ccc2-3)c1C`, for which the IC50 was > 100 µM (inactive). The value for `COc1ccc(Cc2nc(-c3ncc4cccnc4c3O)n[nH]2)cc1OC` was 50 µM; that for `O=C(Nc1cccc(Cl)c1)Nc1ccc([N+](=O)[O-])cc1Cl` was 32 µM.

Regarding `Cc1ccc(NC(C)C(=O)Nc2ccc(C#N)cc2)cc1S(=O)(=O)N1CCCCC1` (stereo unspecified), the IC50 is 79 µM. As for `COc1ccc2ncc(Cl)c(CCN3CC[C@@H](NCc4cc5c(cn4)OCS5)[C@H](O)C3)c2n1`, the IC50 is 50 µM. In the case of `CCc1nn(-c2ncc(F)c(NC(C)C)n2)c(N)c1C1CCCCC1`, the IC50 is 32 µM. The value for `CCCc1cc(N)nc(-c2cc(CCC)cc(N)n2)c1` was 32 µM; that for `CCc1ccccc1[C@@H](C)NC(=O)c1cnc2c(cnn2CC)c1NC1CCN(C(N)=O)CC1` was > 100 µM (inactive). Regarding `Cc1cc(Br)cc(C(=O)c2c(C(C)C)c(=O)[nH]c(=O)n2Cc2ccnc(N)c2)c1`, the IC50 is > 100 µM (inactive).

Take `Cc1c(CNC(=O)c2ccc(Cn3cc(Cl)c([N+](=O)[O-])n3)cc2)cnn1C`: the IC50 was > 100 µM (inactive).

Consider `Cc1ccc2nc(N(Cc3cccnc3)C(=O)CCc3ccccc3)sc2c1`, for which the IC50 is > 100 µM (inactive).

Turning to `Cn1cc(CN2CCN(c3ccc4c(c3)CCN(C(=O)[C@H]3C[C@@H]3c3ccccc3)CC4)CC2)cn1`, the IC50 was 50 µM. The value for `COc1ccc(C2CC(c3ccccc3Cl)=NN2C(=O)CNC(=O)C2CCC2)cc1` (stereo unspecified) was > 100 µM (inactive); that for `COC(=O)c1ccc(-c2cnc3ccc(NCc4ccccn4)nn23)cc1` was 100 µM. The value for `Cc1nc2c(-c3nc(-c4ccc(N)cc4)n[nH]3)cccn2c1C` was 16 µM; that for `CNc1cncc(C2CCCN2C(=O)Cc2coc3cc(C)ccc23)n1` (stereo unspecified) was > 100 µM (inactive). In the case of `CCc1ccc2nc(NC(=O)c3cc(N4CCOCC4)ccn3)sc2c1`, the IC50 was > 100 µM (inactive). For `NC(=O)c1ccsc1NC(=O)c1ccc([N+](=O)[O-])s1`, the IC50 is > 100 µM (inactive). Take `Cc1nc(N2CC(C)OC(C)C2)sc1C(=O)Nc1ccc2c(c1)OCO2` (stereo unspecified): the IC50 is > 100 µM (inactive).

On to `COc1ccc(S(=O)(=O)NCc2ccc(-c3ccc(CN(C)CCO)cc3)cc2)cc1`, for which the IC50 is 50 µM. For the compound `COCc1cnc2c(c1SCc1c(F)cccc1Cl)c(=O)n(C)c(=O)n2C`, the IC50 was > 100 µM (inactive). Turning to `Cc1nc(N2CCC(C(=O)N3CCC(O)(c4cccnc4)CC3)CC2)nc2ccc(C(C)C)cc12`, the IC50 is 79 µM.

`Cc1ccc(C)c(-n2nnnc2Sc2nc([N+](=O)[O-])nn2C)c1`: the IC50 was > 100 µM (inactive).

As to `c1ccc2[nH]c(-c3ccc(N4CCCC4)nc3)nc2c1`, the IC50 was > 100 µM (inactive). `CCc1cccc(CC)c1-n1c(SCC(=O)N2CC(=O)Nc3ccccc32)nnc1-c1cccnc1`: the IC50 was > 100 µM (inactive). Turning to `O=c1[nH]c(C=Cc2cccc(OCCOc3ccccc3)c2)nc(O)c1[N+](=O)[O-]`, the IC50 was > 100 µM (inactive). Consider `Cc1ccc(NC(=O)c2ccc([N+](=O)[O-])s2)cc1S(=O)(=O)N1CCOCC1`, for which the IC50 was 16 µM. The value for `N#Cc1ccccc1S(=O)(=O)N1CCN(C(=O)CNC(=O)c2ccc3c(c2)OCO3)CC1` was > 100 µM (inactive); that for `COc1ccc(C)cc1-c1csc(NC(=O)C(C)n2ccnc2)n1` (stereo unspecified) was > 100 µM (inactive).

Regarding `COc1ccc(-c2csc(NC(=O)c3ccc([N+](=O)[O-])s3)n2)cc1`, the IC50 is > 100 µM (inactive).

Turning to `COc1ccc(S(=O)(=O)Nc2ccc(C(=O)Nc3nc(-c4ccccn4)cs3)cc2)cc1`, the IC50 is 63 µM.
